ChEMBL document CHEMBL1201862, “PubChem BioAssay data set” (2004)
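Tested at 5 concentrations; 48 h exposure; 96-well plates; endpoints linearly interpolated, else capped at highest concentration. GI50 = concentration required for 50% inhibition of growth.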 The source made the active and inactive calls. Rule as the data show it: active = GI50 up to about 1.1 µM and inactive = higher.

Experiments:
Assay in all cases: NCI anticancer screen, dose series, 48 h
CCRF-CEM = system: CCRF-CEM
SK-MEL-5 = system: SK-MEL-5
UO-31 = system: UO-31
Hs-578T = system: Hs-578T
LOX IMVI = system: LOX IMVI
MDA-N = system: MDA-N
SF-268 = system: SF-268
SK-MEL-28 = system: SK-MEL-28
RXF 393 = system: RXF 393
PC-3 = system: PC-3
A549 = system: A549
K562 = system: K562
CAKI-1 = system: CAKI-1
Malme-3M = system: Malme-3M
SK-MEL-2 = system: SK-MEL-2
OVCAR-8 = system: OVCAR-8
HCT-15 = system: HCT-15
KM12 = system: KM12
MOLT-4 = system: MOLT-4
UACC-62 = system: UACC-62
NCI-H460 = system: NCI-H460
OVCAR-4 = system: OVCAR-4
NCI/ADR-RES = system: NCI/ADR-RES
HCT-116 = system: HCT-116
SW-620 = system: SW-620
SK-OV-3 = system: SK-OV-3
SF-539 = system: SF-539
786-0 = system: 786-0
TK-10 = system: TK-10
T47D = system: T47D
MCF7 = system: MCF7
MDA-MB-231 = system: MDA-MB-231
MDA-MB-435 = system: MDA-MB-435
RPMI-8226 = system: RPMI-8226
NCI-H522 = system: NCI-H522
IGROV-1 = system: IGROV-1
HL-60 = system: HL-60
BT-549 = system: BT-549
ACHN = system: ACHN
SNB-75 = system: SNB-75
OVCAR-5 = system: OVCAR-5
HCC 2998 = system: HCC 2998
EKVX = system: EKVX
NCI-H23 = system: NCI-H23
HOP-62 = system: HOP-62
UACC-257 = system: UACC-257
SNB-19 = system: SNB-19
HOP-92 = system: HOP-92
HT-29 = system: HT-29
SF-295 = system: SF-295
SR = system: SR
COLO 205 = system: COLO 205
OVCAR-3 = system: OVCAR-3
U-251 = system: U-251
DU-145 = system: DU-145
M14 = system: M14
A498 = system: A498
SN12C = system: SN12C
NCI-H226 = system: NCI-H226

Question: `C=C1C(=O)OC2/C=C(\C)CC/C=C(/C)CC(OC(=O)/C(=C/CO)CO)C12` (centres undefined) was tested. Which GI50 (CCRF-CEM) did it give?
Answer: 6.43 µM (inactive)

Question: What about the GI50 (SK-MEL-5) of the same compound?
Answer: 17.3 µM (inactive)

Question: And the GI50 (UO-31)?
Answer: 17 µM (inactive)

Question: What about the GI50 (Hs-578T) of the same compound?
Answer: 39.7 µM (inactive)

Question: And the GI50 (LOX IMVI)?
Answer: 23.4 µM (inactive)

Question: And the GI50 (MDA-N)?
Answer: 20.5 µM (inactive)

Question: What about the GI50 (SF-268) of the same compound?
Answer: 26.7 µM (inactive)

Question: And the GI50 (SK-MEL-28)?
Answer: 28.4 µM (inactive)

Question: What about the GI50 (RXF 393) of the same compound?
Answer: 11 µM (inactive)

Question: What about the GI50 (PC-3) of the same compound?
Answer: > 100 µM (inactive)

Question: What about the GI50 (A549) of the same compound?
Answer: 66.2 µM (inactive)

Question: And the GI50 (K562)?
Answer: 30 µM (inactive)

Question: And the GI50 (CAKI-1)?
Answer: 18.9 µM (inactive)

Question: And the GI50 (Malme-3M)?
Answer: 20.1 µM (inactive)

Question: What about the GI50 (SK-MEL-2) of the same compound?
Answer: 25 µM (inactive)

Question: And the GI50 (OVCAR-8)?
Answer: 32.4 µM (inactive)

Question: What about the GI50 (HCT-15) of the same compound?
Answer: 17.3 µM

Question: And the GI50 (KM12)?
Answer: > 100 µM (inactive)

Question: And the GI50 (MOLT-4)?
Answer: 25.6 µM (inactive)

Question: And the GI50 (UACC-62)?
Answer: 16.8 µM (inactive)

Question: And the GI50 (NCI-H460)?
Answer: 64.3 µM (inactive)

Question: And the GI50 (OVCAR-4)?
Answer: 33.6 µM (inactive)

Question: What about the GI50 (NCI/ADR-RES) of the same compound?
Answer: 32.6 µM (inactive)

Question: What about the GI50 (HCT-116) of the same compound?
Answer: > 10 µM (inactive)

Question: And the GI50 (SW-620)?
Answer: 21.4 µM (inactive)

Question: What about the GI50 (SK-OV-3) of the same compound?
Answer: > 100 µM (inactive)

Question: What about the GI50 (SF-539) of the same compound?
Answer: 24.5 µM (inactive)

Question: And the GI50 (786-0)?
Answer: 23.6 µM (inactive)

Question: And the GI50 (TK-10)?
Answer: 15.7 µM (inactive)

Question: And the GI50 (T47D)?
Answer: > 10 µM (inactive)

Question: And the GI50 (MCF7)?
Answer: 19.6 µM (inactive)

Question: What about the GI50 (MDA-MB-231) of the same compound?
Answer: > 10 µM (inactive)

Question: And the GI50 (MDA-MB-435)?
Answer: 27.8 µM (inactive)

Question: What about the GI50 (RPMI-8226) of the same compound?
Answer: 23.2 µM (inactive)

Question: And the GI50 (NCI-H522)?
Answer: 17.1 µM (inactive)

Question: What about the GI50 (IGROV-1) of the same compound?
Answer: 33.5 µM (inactive)

Question: What about the GI50 (HL-60) of the same compound?
Answer: 3.33 µM (inactive)

Question: And the GI50 (BT-549)?
Answer: 14.3 µM (inactive)

Question: What about the GI50 (ACHN) of the same compound?
Answer: 17.8 µM (inactive)

Question: And the GI50 (SNB-75)?
Answer: 45.4 µM (inactive)

Question: What about the GI50 (OVCAR-5) of the same compound?
Answer: 18.7 µM (inactive)

Question: What about the GI50 (HCC 2998) of the same compound?
Answer: 23 µM (inactive)

Question: And the GI50 (EKVX)?
Answer: > 10 µM (inactive)

Question: And the GI50 (NCI-H23)?
Answer: 18.2 µM (inactive)

Question: And the GI50 (HOP-62)?
Answer: > 100 µM (inactive)

Question: What about the GI50 (UACC-257) of the same compound?
Answer: 16.4 µM (inactive)

Question: And the GI50 (SNB-19)?
Answer: 65 µM (inactive)

Question: And the GI50 (HOP-92)?
Answer: 26.7 µM (inactive)

Question: And the GI50 (HT-29)?
Answer: 27.2 µM (inactive)

Question: What about the GI50 (SF-295) of the same compound?
Answer: 93.5 µM (inactive)

Question: And the GI50 (SR)?
Answer: 28.6 µM (inactive)

Question: What about the GI50 (COLO 205) of the same compound?
Answer: 16.9 µM (inactive)

Question: And the GI50 (OVCAR-3)?
Answer: 25.2 µM (inactive)

Question: What about the GI50 (U-251) of the same compound?
Answer: 20.9 µM (inactive)

Question: What about the GI50 (DU-145) of the same compound?
Answer: 17.5 µM (inactive)

Question: And the GI50 (M14)?
Answer: 18.1 µM (inactive)

Question: And the GI50 (A498)?
Answer: > 10 µM (inactive)

Question: What does the source list for `CC12Nc3ccccc3N1C(=O)c1ccccc12` (centres undefined)?
Answer: GI50 (CCRF-CEM): > 100 µM (inactive); GI50 (SK-MEL-5): > 100 µM (inactive); GI50 (SN12C): > 100 µM (inactive); GI50 (UO-31): > 100 µM (inactive); GI50 (Hs-578T): > 100 µM (inactive); GI50 (LOX IMVI): > 100 µM (inactive); GI50 (MDA-N): > 100 µM (inactive); GI50 (SF-268): > 100 µM (inactive); GI50 (SK-MEL-28): > 100 µM (inactive); GI50 (RXF 393): > 100 µM (inactive); GI50 (PC-3): > 100 µM (inactive); GI50 (A549): > 100 µM (inactive); GI50 (K562): > 100 µM (inactive); GI50 (CAKI-1): > 100 µM (inactive); GI50 (SK-MEL-2): > 100 µM (inactive); GI50 (OVCAR-8): > 100 µM (inactive); GI50 (HCT-15): > 100 µM; GI50 (KM12): > 100 µM (inactive); GI50 (MOLT-4): > 100 µM (inactive); GI50 (UACC-62): > 100 µM (inactive); GI50 (NCI-H460): > 100 µM (inactive); GI50 (OVCAR-4): > 100 µM (inactive); GI50 (NCI/ADR-RES): > 100 µM (inactive); GI50 (HCT-116): > 100 µM (inactive); GI50 (SW-620): > 100 µM (inactive); GI50 (SK-OV-3): > 100 µM (inactive); GI50 (SF-539): > 100 µM (inactive); GI50 (786-0): > 100 µM (inactive); GI50 (TK-10): > 100 µM (inactive); GI50 (T47D): > 100 µM (inactive); GI50 (MCF7): > 100 µM (inactive); GI50 (MDA-MB-231): > 100 µM (inactive); GI50 (MDA-MB-435): > 100 µM (inactive); GI50 (RPMI-8226): > 100 µM (inactive); GI50 (NCI-H522): > 100 µM (inactive); GI50 (IGROV-1): > 100 µM (inactive); GI50 (HL-60): > 100 µM (inactive); GI50 (BT-549): > 100 µM (inactive); GI50 (ACHN): > 100 µM (inactive); GI50 (OVCAR-5): > 100 µM (inactive); GI50 (HCC 2998): > 100 µM (inactive); GI50 (EKVX): > 100 µM (inactive); GI50 (NCI-H23): > 100 µM (inactive); GI50 (HOP-62): > 100 µM (inactive); GI50 (UACC-257): > 100 µM (inactive); GI50 (SNB-19): > 100 µM (inactive); GI50 (HOP-92): > 100 µM (inactive); GI50 (HT-29): > 100 µM (inactive); GI50 (SF-295): > 100 µM (inactive); GI50 (SR): > 100 µM (inactive); GI50 (COLO 205): > 100 µM (inactive); GI50 (OVCAR-3): > 100 µM (inactive); GI50 (U-251): > 100 µM (inactive); GI50 (DU-145): 88.1 µM (inactive); GI50 (M14): > 100 µM (inactive); GI50 (A498): > 100 µM (inactive); GI50 (NCI-H226): > 100 µM (inactive)
